From patent US7872016B2, “Method for treating skeletal disorders resulting from FGFR malfunction” (Yale University, priority 2004, dated 2011)
“Also recorded” adds a separate entry of the source.

Tests used:
FRS2α [1] = conditions: unstimulated cells treated with the MEK inhibitor; cited from earlier work
[2] = test system: wild type suture (calvaria); test: Calvaria organ culture, wild type mice: suture development; assay type: cell-based, mouse; conditions: for normal development of the sutures in the wild type: cultured 21 days
Method: (§1) FIGS. 15A-15D show results of in vitro culture of calvaria with FGFR inhibitor PLX052. Calvaria harvested from the Crouzon mutant and wild type E18.5 day old embryos were cultured in DMEM medium containing 10% FCS supplemented with ascorbic acid at 100 μg/ml and 1 μM PLX052 in 24 well plates. Medium was changed on alternate days along with the inhibitor. Controls were cultured with the vehicle only (0.2% DMSO). Calvaria were cultured for 14 days. After the specified time, calvaria were fixed in 10% buffered formalin, dehydrated followed by infiltration and embedding in methylmethacrylate plastic. Blocks were cut perpendicular to the coronal suture, that passes through the frontal bone (anterior side) and the parietal bone (posterior side). […] sections were collected and stained with toludine blue (FIG. 15.2, left panels). Adjacent sections were stained for minerals of the bone matrix using Van Kossa followed by methyl green counter staining. (A) wild type, and (B), mutant calvaria cultured with the vehicle alone (0.2% DMSO). Note the open suture in the wild type (A) and the fused suture in the mutant (B) cultured calvaria. (C), wild type and (D), mutant cultured with 1 μM PLX052 (in 0.2% DMSO). The left panels [(i), (iii)] are toluidine blue staining and the right panels [(ii), (iv)] are Van Kossa with methyl green counter staining. Lower panels [(iii), (iv)] are the higher magnification of the sutures shown in the boxed region of the upper panels [(i), (ii)].
(§2) PLX052 prevents cranial suture fusion in vitro. Next, we tested the ability of the PLX052 to prevent craniosynostosis in calvaria organ culture from wt and Crouzon-like mutant mice (FIG. 15). […] The calavria organ culture experiments were repeated with two different concentrations of PLX052 (1 μM and 5 μM) and cultured for extended period of time (21 days) to assess the dose response for this inhibitor (see below). […] Higher concentrations of PLX052 (50 μM and above) have caused extensive cell death within 24 hours in cultured cells. […]

cultured cells = test: Cell death in cultured cells; assay type: cell-based; conditions: within 24 hours
Method: PLX052 prevents cranial suture fusion in vitro. Next, we tested the ability of the PLX052 to prevent craniosynostosis in calvaria organ culture from wt and Crouzon-like mutant mice (FIG. 15). […] The calavria organ culture experiments were repeated with two different concentrations of PLX052 (1 μM and 5 μM) and cultured for extended period of time (21 days) to assess the dose response for this inhibitor (see below). […] Higher concentrations of PLX052 (50 μM and above) have caused extensive cell death within 24 hours in cultured cells. Therefore, it is feasible to use limited amount of inhibitor to attenuate the abnormal signaling from the mutant receptors without causing adverse effect on the normal signaling pathways.

FGFR2 = molecular target: T1, FGFR2 (Mus musculus, UniProt P21803); test: Blocking ligand-stimulated tyrosine autophosphorylation of FLAG-tagged FGFR2 in 3T3 cells (IP / anti-pTyr immunoblot); assay type: cell-based; conditions: 3T3 cells pretreated 5 minutes, then ligand stimulated 5 minutes at 37° C.
T1 construct: expressed in transfected cells; host or cells: 3T3 cells
Method: FIGS. 14A-D show pharmacological intervention in FGFR activation. (C) Structure of [4-(3,5-difluorophenyl)-1H-pyrrolo[2,3-b]pyridin-3-yl](3-methoxyphenyl)methanone (PLX052). (D) 3T3-cells treated for 5 minutes with PLX052 were ligand stimulated for 5 minutes at 37° C. Cell lysates were subjected to immunoprecipitation with anti-FLAG tag antibodies (the expression vector contains a tag in the c-terminus of FGFR2) followed by immunoblotting with either anti-phosphotyrosine (pTyr) or anti-FLAG antibodies. (A & B) Crystals of the apo-FGFR1 minimal kinase domain were grown at 4° C. by vapor diffusion in hanging drops containing 2 uL of 12 mg/mL protein solution and 2 uL of reservoir solution: 16% PEG8K, 0.25 M (NH4)2SO4, 5% ethylene glycol, 10 mM DTT, and 0.1 M Bis Tris, pH 5.8. Native crystals were soaked overnight at 4° C. in mother liquor containing 2 mM PLX052 and 5% DMSO. Complexed crystal belongs to monoclinic space group C2 and has unit cell dimensions a=211.9 Å, b=49.7 Å, c=66.2 Å, and β=107.4°. One cryo-cooled crystal was used for data collection, and data was collected at beamline X26 at Brookhaven National Laboratory. Co-crystallization of the kinase with PLX052 was also performed and found the same structural result. […] The nucleotide binding loop is shown in blue, the hinge region in magenta, and the catalytic core in yellow. (A) The side chains that interact with PLX052. […]

MAP Kinase signaling = MAP Kinase signaling in mutant cells expressing constitutively activated Crouzon-like mutant Fgfr2c isoform; assay type: cell-based; conditions: results not shown
Method: (§3) We first tested the effect of PLX052 in vitro for blocking the activation of FGFR2. Cells were pretreated for 5 minutes with the compound before stimulation. […] We further tested the ability of PLX052 in blocking the FRS2 phosphorylation in mutant cells expressing constitutively activated Crouzon-like mutant Fgfr2c isoform.

[3] = test system: coronal suture of Crouzon-like mutant mice calvaria; test: Calvaria organ culture, Crouzon-like mutant mice: coronal suture fusion; assay type: cell-based, mouse; conditions: for premature fusion of coronal suture of mutant mice calvaria: cultured 21 days
Method: as §1, §2

FRS2α [4] = test: FRS2 phosphorylation in mutant cells expressing constitutively activated Crouzon-like mutant Fgfr2c isoform; assay type: cell-based; conditions: results not shown
Method: as §3

[5] = 1 μM, E18.5 calvaria cultured 14 days

T1 sequence (P21803 22-821): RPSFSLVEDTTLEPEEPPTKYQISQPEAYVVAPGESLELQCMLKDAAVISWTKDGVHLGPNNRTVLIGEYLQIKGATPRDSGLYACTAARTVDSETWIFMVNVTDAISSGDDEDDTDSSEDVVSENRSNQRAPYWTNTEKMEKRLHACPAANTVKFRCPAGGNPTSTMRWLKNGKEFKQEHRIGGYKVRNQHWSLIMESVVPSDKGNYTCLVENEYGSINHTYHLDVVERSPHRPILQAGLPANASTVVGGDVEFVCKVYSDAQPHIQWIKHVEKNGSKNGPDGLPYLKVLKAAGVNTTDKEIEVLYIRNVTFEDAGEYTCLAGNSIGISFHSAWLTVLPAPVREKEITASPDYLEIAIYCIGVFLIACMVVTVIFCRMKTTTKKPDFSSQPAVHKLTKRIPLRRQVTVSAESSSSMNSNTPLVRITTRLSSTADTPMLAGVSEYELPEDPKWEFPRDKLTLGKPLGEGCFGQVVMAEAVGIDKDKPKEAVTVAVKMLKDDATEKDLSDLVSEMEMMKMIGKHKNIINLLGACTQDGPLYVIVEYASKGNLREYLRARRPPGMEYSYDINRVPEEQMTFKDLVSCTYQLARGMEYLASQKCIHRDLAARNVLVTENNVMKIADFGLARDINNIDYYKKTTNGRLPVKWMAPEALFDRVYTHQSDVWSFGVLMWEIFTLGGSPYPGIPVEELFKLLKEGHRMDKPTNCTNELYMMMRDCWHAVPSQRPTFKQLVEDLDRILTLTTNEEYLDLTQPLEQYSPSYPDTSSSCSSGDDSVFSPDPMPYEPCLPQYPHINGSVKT

| Structure (SMILES) | tyrosine phosphorylation of FRS2α (FRS2α [1]) | growth of the wild type suture [2, 5] | normal development of the sutures in the wild type ([2]; 1 μM) | normal development of the sutures in the wild type ([2]; 5 μM) | concentration causing extensive cell death (cultured cells) | concentration that inhibits FGFR activation to basal levels (tyrosine autophosphorylation of FGFR2) (FGFR2) | MAP Kinase signaling (MAP Kinase signaling) | premature fusion of coronal suture in mutant calvaria in vitro [3, 5] | premature fusion of coronal suture of mutant mice calvaria ([3]; 1 μM) | premature fusion of coronal suture of mutant mice calvaria ([3]; 5 μM) | phosphorylation of FRS2α (FRS2α [4]) |
| --- | --- | --- | --- | --- | --- | --- | --- | --- | --- | --- | --- |
| COc1cccc(-c2cc(=O)c3ccccc3o2)c1N [PD 0980089] | leads to constitutive tyrosine phosphorylation of FRS2α | – | – | – | – | – | – | – | – | – | – |
| COc1cccc(C(=O)c2c[nH]c3nccc(-c4cc(F)cc(F)c4)c23)c1 [PLX052, [4-(3,5-difluorophenyl)-1H-pyrrolo[2,3-b]pyridin-3-yl](3-methoxyphenyl)methanone] | – | did not affect the growth of the wild type suture | without affecting the normal development of the sutures in the wild type | without affecting the normal development of the sutures in the wild type | ≥ 50 µM | 10 µM | attenuated MAP Kinase signaling | able to rescue the premature fusion of coronal suture; also recorded: open suture in the mutant cultured with PLX052 | able to prevent the premature fusion of coronal suture | able to prevent the premature fusion of coronal suture | significant reduction in the phosphorylation of FRS2α |
